Test [1] deals with toxinogenic C. difficile strain 10465. The experiment in a line: Primary prevention of C. difficile infection (mouse model). The test is classed as in vivo, C57BL/6 mice. Particulars: po gavage day -1 to 3 (5 doses), FIG. 6. How it is done: (§1) C57BL/6 mice were housed in cages with free access to chow (Purina 5000) and tap water. Animals were treated with a mixture of oral antibiotics (kanamycin, gentamicin, colistin, metronidazole, and vancomycin) for 3 days as previously described (Chen et al (2008) Gastroenterology 135: 1984-92). Two days later, they were given parenteral clindamycin phosphate (10 mG/kg s.c.) [Day −1]. One day later [Day 0] they were challenged by gavage with 0.5×10^5 cfu of toxinogenic C. difficile strain 10465. A moderate to fulminant colitis developed 1 to 5 days after the administration of C. difficile. Untreated, this progresses rapidly into severe and fatal colitis in the majority of animals. The test compounds (suspended in carbonate buffer) were administered to groups at the dosage levels as shown in Table 1 (n=10 per group except group 4). Dosing (by gavage) started 1 day before C. difficile challenge [Day −1] and continued daily for 5 days.
(§2) Animals were weighed daily and observed three times daily for morbidity and presence or absence of severe CDI with diarrhea. Animals judged to be in a moribund state [extended period of weight loss progressing to an emaciated state, anorexia for 24-48 hrs, prolonged lethargy (more than 3 days), signs of paralysis, skin erosions or trauma, hunched posture, distended abdomen] were euthanized by a single injection of sodium pentobarbital. […]

The test system is the same in test [2]. The experiment in a line: Prevention of recurrence of C. difficile infection after vancomycin (mouse model). The test is classed as in vivo, C57BL/6 mice. Particulars: vancomycin day -1 to 3 (5 doses), then Ig 400 mG/kg po day 4 to 8 (5 doses); observation until day 28; FIG. 7. How it is done:
as §1, §2

We go through 1 compound from US9932392B2, “Prevention of infection” (priority 2012, dated 2018).

Molecules are shown by their SMILES.

Take `CN[C@H](CC(C)C)C(=O)N[C@H]1C(=O)N[C@@H](CC(N)=O)C(=O)N[C@H]2C(=O)N[C@H]3C(=O)N[C@H](C(=O)N[C@H](C(=O)O)c4cc(O)cc(O)c4-c4cc3ccc4O)[C@H](O)c3ccc(c(Cl)c3)Oc3cc2cc(c3O[C@@H]2O[C@H](CO)[C@@H](O)[C@H](O)[C@H]2O[C@H]2C[C@](C)(N)[C@H](O)[C@H](C)O2)Oc2ccc(cc2Cl)[C@H]1O` [Vancomycin]: in test [1], the “fraction of animals with recurrence of C. difficile infection after stopping treatment” value turned out to be 60%. Besides, the survival rate in test [1] (vancomycin 50 mG/kg, IgA 400 mG/kg) turned out to be 40%. Further, the “rate of recurrence of infection (animals)” value in test [2] is 6 out of 10.
